# Test results taken from a melting point compilation (Tetko et al.; mined from patent text by program, amines drawn as free bases though some values may be those of a salt).
row,Compound,melting point
1,CCOC(=O)CC[C@H](NC(=O)c1ccc(CCc2cnc3[nH]c(NC(=O)C(C)(C)C)nc(=O)c3c2)s1)C(=O)OCC,57 to 87 °C
2,COc1cc(N)cnc1Cl,93 to 94 °C
3,CCc1ccc(NS(=O)(=O)c2ccc(N3CCNC3=O)cc2)cc1,195 to 196 °C
4,CC(=O)c1ccc(CC(=O)OC(C)(C)C)cc1,50 to 52 °C
5,CSCC[C@H](NC(=O)c1ccc(/C=C(/Cn2ccnc2)c2ccc(F)cc2)cc1)C(=O)O,106 °C
6,CCCn1c(-c2ccc(I)cc2)nc2cc(C#N)c(C#N)cc21,208 to 209 °C
7,CCOC(=O)/C=C/c1ccc(OCCOC)cc1Oc1ncc(C(F)(F)F)cc1Cl,78.2 to 78.5 °C
8,COc1cc(/C=C2/C(=O)NC(=O)/C2=C/c2ccccc2)cc(OC)c1OC,176 to 178 °C
9,C[C@H](NP(=O)(Cc1ccccc1)Cc1ccccc1)C(=O)N1CCC[C@H]1C(=O)N1CCC[C@H]1C(N)=O,89 °C
10,Cc1nc(N(C)c2ccc(Cl)cc2)sc1-c1ccnc(Nc2ccc(N3CCOCC3)cc2)n1,245 to 246 °C
11,CCOC(=O)c1nocc1O,59 to 60 °C
12,CCCCc1ccc(-c2ncc(C#N)cn2)cc1,109 to 110 °C
13,CC(C)COC(=O)C(=O)c1csc(N)n1,105 to 108 °C
14,CC(Cc1cccc2ccccc12)(Cc1cccc2ccccc12)C(=O)NC(C)(Cc1c[nH]c2ccccc12)C(=O)O (centres undefined),195 to 197 °C
15,OC1c2cc(OCc3ccc4ccccc4n3)ccc2OCCC1Oc1ccccc1 (centres undefined),128 to 129 °C
16,CCc1c(C(C#N)c2cc(C)cc(C)c2)[nH]c(=O)[nH]c1=O (centres undefined),105 to 107 °C
17,O=S(=O)(Cl)c1cc(S(=O)(=O)Cl)c2cc(S(=O)(=O)Cl)cc(S(=O)(=O)Cl)c2c1,263 to 270 °C

row,Compound,melting point
1,CC(=O)N(c1cc2occc(=O)c2cc1Oc1ccc(F)cc1F)S(C)(=O)=O,176 to 178 °C
2,CN1CC=C(c2c[nH]c3ccc(N)cc23)CC1,200 to 203 °C
3,Cc1nnc2n1-c1sc(C#CCn3c(=O)c4c(ncn4C)n(C)c3=O)cc1C(c1ccccc1Cl)=NC2,277 to 280 °C
4,CCOC(=O)C(C)(C)OC(=O)c1cc(-n2c(=O)cc(C(F)(F)C(F)(F)F)[nH]c2=O)ccc1Cl,141 to 143 °C
5,COc1ccc2c(C3=C(c4cn(C)c5cc([N+](=O)[O-])ccc45)C(=O)NC3=O)cn(C)c2c1,308 to 310 °C
6,CC(C)Cc1ccc2oc(=O)c(=O)oc2c1,92 to 97 °C
7,CN(C)C(C#N)C1(c2ccc(Cl)cc2)CCC1 (centres undefined),90 to 91 °C
8,Cn1cc(C(=O)O)c(=O)c2c3cc(N4CCC(O)(c5cccc(C(F)(F)F)c5)CC4)c(F)cc3ncc21,300 °C
9,CC(C)[C@H](NCc1ccc(I)cc1)C(=O)O,256 to 258 °C
10,COc1ccc(-c2cc(CO)c(=O)n(Cc3ccc(F)c(F)c3)n2)cc1F,154 to 156 °C
11,O=c1[nH]c2cc(C(F)(F)F)c(Cl)c(Cl)c2[nH]c1=O,> 250 °C
12,COc1cc(NC(C)CCCN2C(=O)c3ccccc3C2=O)c2nccc(C=Cc3cccc(C(F)(F)F)c3)c2c1 (centres undefined),154 to 156 °C
13,CCCCCCCCCCCCCCCCCC(=O)N[C@@H](C)C(=O)O,102 °C
14,COc1ccc(-c2cc(=O)c3cc(OCCCCCN4CCC(O)CC4)ccc3o2)cc1OC,154 to 155 °C
15,CC(C)Oc1cc(-n2c(=O)[nH]c3c(c2=O)CCC3)c(F)cc1Cl,215 to 217 °C
16,CCC1(CC)c2cc(-c3nc4ccccc4s3)ccc2-c2ccc(N(c3ccc(O)cc3)c3ccc(O)cc3)cc21,294 to 297 °C

# The next lines start with the values.
row,melting point,Compound
1,117 to 118 °C,C[Si](C)(C)c1ccc2c(c1)Cc1cc([Si](C)(C)C)ccc1-2
2,107 to 108 °C,O=C(CC1CC(OC(=O)c2ccccc2)CCC1=O)c1ccccc1 (centres undefined)
3,60 to 61 °C,CC(C)C(C)(C(=O)NCCc1ccccn1)C(C)C
4,257 to 260 °C,CCOC(=O)c1nnc2ccc(N3C(=O)C=CC3=O)cc2c1O
5,124 to 140 °C,Cc1c(N=C2NCCO2)cccc1NS(C)(=O)=O
6,161 to 162 °C,CC(C)CC1(C(CCN2C(=O)c3ccc([N+](=O)[O-])cc3C2=O)C(=O)NO)CCN(CCc2ccccc2)C1=O (centres undefined)
7,> 270 °C,CN1CCC(C2=C(C#N)C(c3cccc4nonc34)c3c[nH]nc3N2)CC1 (centres undefined)
8,107 to 109 °C,Cc1cn(C(C)(C)C(=O)N(C)C)nc1-c1ccccc1
9,> 290 °C,Cc1c(C2=C(c3cn(C)c4ccccc34)C(=O)NC2=O)c2ccccc2n1C
10,211 to 215 °C,c1ccc(-c2cc(-c3csc(Nc4ccccn4)n3)on2)cc1
11,119 to 120 °C,CCCCC(O)c1cn(C(c2ccccc2)(c2ccccc2)c2ccccc2)cn1 (centres undefined)
12,186 to 188 °C,Cc1c(CC(=O)O)c2cc(OCc3ccc4ccccc4n3)ccc2n1C
13,120 to 121 °C,CN(C)C(=O)c1cn(Cc2ccccc2Cl)nn1
14,280 °C,CS(=O)(=O)CCc1nc2nc[nH]c2c2nc(-c3ccc(-c4ccccc4)cc3)nn12
15,211 to 212 °C,CCOC(=O)c1cccc(NC(=O)Nc2ccc(-n3nc(C(F)(F)F)cc3C(F)(F)F)cc2)c1
16,132 °C,CN1CCN(C2c3ccccc3CC2O)CC1 (centres undefined)
17,70 °C,CCOC(=O)C(C)(C)Oc1ccc2c(-c3ccc(Cl)cc3)noc2c1
18,190 to 191 °C,CN1CCN(c2cccc3c2C[C@H](NC(=O)c2ccc(N4CCSCC4)cc2)CC3)CC1

row,melting point,Compound
1,150 to 161 °C,O=C1CCCc2nc3ccccc3c(NCc3ccccc3Cl)c21
2,99 to 100 °C,COc1c(C)c(C)c(OC)c(C(O)(c2ccccn2)C(C)C)c1C (centres undefined)
3,159 to 161 °C,CN(C)C(=O)Nc1cccc(CCC#N)c1
4,152 to 154 °C,COc1ccccc1-n1c(-c2cc(-c3ccccc3)c(N3CCOCC3)s2)nc2ccccc2c1=O
5,87 to 89 °C,COC(=O)c1cccc(N2CC(C)=CC2=O)c1
6,181 to 182 °C,NNc1ncnc(Nc2ccc(F)c(C(F)(F)F)c2)n1
7,122 to 124 °C,COC(=O)c1cccc(CN2CCN(c3nc(C)c(C(C)=O)s3)C2=O)c1
8,81 °C,COC(=O)N1CCCC2(Cc3ccc(Br)cc3)C(=O)N(c3cc(Cl)nc(Cl)c3)C(=O)N12 (centres undefined)
9,133 to 135 °C,CC(C)N1C(=O)c2cncnc2N(C(=O)CN2CCN(C)CC2)c2ccccc21
10,80 to 82 °C,CCCCOCCOc1ccc(-c2ccc3c(c2)C=C(C(=O)OC)CCN3c2ccccc2)cc1
11,111 to 119 °C,CN1CCN(c2cc(Cl)cc3c2c(=O)n(-c2ccccc2)c(=O)n3Cc2ccccc2)CC1
12,204 to 206 °C,O=C(c1ccc[nH]1)c1cccn1N1C(=O)c2ccccc2C1=O
13,261 to 262 °C,Cc1cccc(C)c1NC(=O)CN1C(=O)C2(COc3cc4c(cc32)CCO4)c2ccccc21 (centres undefined)
14,261 to 263 °C,NC(=O)Nc1nc2n(n1)Cc1ccccc1-2
15,208 to 209 °C,CS(=O)(=O)Nc1cc(NC(=O)CN2C(=O)c3ccccc3C2=O)ccc1Oc1ccccc1
16,120 °C,Cc1ccc2c(c1)[nH]c(=O)n2CCCl
17,188 to 189 °C,CC(C)(C)OC(=O)N1CCN2C(=O)OC(Cc3ccccc3)(Cc3ccccc3)C2C1 (centres undefined)
18,293 to 296 °C,NC(=O)c1nc(-c2cccc(O)c2)nc2c1[nH]c(=O)n2-c1ccccc1-c1ccccc1
